Data as given in patent US20250144107A1, “USE OF A PIKFYVE INHIBITOR IN COMBINATION WITH IMMUNOTHERAPY” (The Regents of the University of Michigan, priority 2023, published 2025).

Experiments:
KPC1361 cells [1] = assay: MHC-I surface expression in Pikfyve-wildtype, Pikfyve-null, Atg5-null or Atg7-null cells; format: cell-based, mouse; details: on-target test
Source text: FIG. 1F (Left) is line graphs of flow cytometry measuring MHC-I surface expression in KPC1361 cells with or without Pikfyve KO, treated with DMSO, Bafilomycin, chloroquine, Apilimod, or ESK981; (Right) is bar graphs of quantification of flow cytometry measuring MHC-I surface expression in KPC1361 cells with or without Pikfyve KO, treated with DMSO, Bafilomycin, chloroquine, Apilimod, or ESK981.
FIG. 1G (Left) is a line graph of flow cytometry measuring MHC-I surface expression in KPC1361 cells with non-targeting single-guide RNA (control), or single-guide RNAs depleting Atg5 or Atg7, treated with DMSO or Apilimod; (Right) is a bar graph of quantification of flow cytometry measuring MHC-I surface expression in KPC1361 cells with non-targeting single-guide RNA (control), or single-guide RNAs depleting Atg5 or Atg7, treated with DMSO or Apilimod.
Cancer cells or the OVA-expressing cancer cells treated in vitro were harvested from dishes, resuspended in buffer MACS (PBS containing 2% FBS and 2 mM EDTA), and stained with Zombie NIR™ Fixable Viability kit (BioLegend: #423106) and fluorophore-conjugated antibody against MHC-I or PE-conjugated antibody against SIINFEKL bound H-2Kb (BioLegend; catalog #141604), respectively. The cells were next washed twice with 1 ml MACS and fixed with 2% paraformaldehyde in PBS for 15 minutes at room temperature. The cells were then subjected to the flow cytometer (SONY SH800S) for measuring surface expression of MHC-I or SIINFEKL bound H-2Kb, respectively. Antibodies used in this study include anti-H-2Kb (BD Biosciences; catalog #553570) and anti-H-2Db (28-14-8; Thermo Fisher Scientific; catalog #12-5999-82) for KPC1361 and B16-F10, anti-H-2Kd (BD Biosciences; catalog #562004) and anti-H-2Dd (BD Biosciences; catalog #553580) for 4T1, anti-H-2Kq (BD Biosciences; catalog #742296) and anti-H-2Dq/H-2Lq (BD Biosciences; catalog #744853) for MyC-CaP, and anti-HLA-A,B,C (clone w6/32; BioLegend; catalog #311406) for human cancer cells.

KPC1361 cells [2] = assay: Immunocytochemistry of MHC-I localization and vacuoles; format: cell-based, mouse; details: IFN-γ stimulated KPC1361 cells, vs DMSO
Procedure: FIG. 1D is a series of 6 images showing MHC-I localization in IFN-γ stimulated KPC1361 cells treated with DMSO, Apilimod, or ESK981.
Cancer cells were seeded on cover glasses coated with 0.01% poly-L-Lysine (Sigma-Aldrich; catalog #: A-005-C). The cells were then treated with DMSO, apilimod, or ESK981, and stimulated with 10 ng/ml mouse recombinant IFN-γ (R&D Systems; catalog #: 485-MI) for 24 hours, followed by fixation with 2% paraformaldehyde in PBS and one washing with PBS. The cells were then permeabilized with 0.25% Triton X-100 in PBS, washed with PBS three times, and blocked with 5% goat serum in PBS for one hour at room temperature. After blocking, the cells were incubated with the MHC-I antibody (ER-HR52; Novus Biologicals; catalog #: NB100-64952) at 4° C. overnight, followed by PBS wash for three times and incubation of secondary antibody, Alexa Fluor 488 goat anti-rat IgG antibody (Jackson Immunoresearch; #112-545-167) at room temperature for one hour. After further washing with PBS three times, the cells were stained with DAPI and mounted on slides for imaging.

Compound	upregulation of MHC-I surface expression, Pikfyve-wildtype vs Pikfyve-null cells (KPC1361 cells [1])	cell surface expression of MHC-I (KPC1361 cells [2])
CC(C)Cn1c2ccc(Nc3ncccn3)cc2c2c3c(c4c(c21)CCc1nn(C)cc1-4)C(=O)NC3 [ESK981, 13-isobutyl-4-methyl-10-(pyrimidin-2-ylamino)-1,2,4,7,8,13-hexahydro-6H-indazolo[5,4-a]pyrrolo[3,4-c]carbazol-6-one]	only observed in the wildtype cells but not Pikfyve-null cells	increased
Cc1cccc(/C=N/Nc2cc(N3CCOCC3)nc(OCCc3ccccn3)n2)c1 [apilimod, N-[(E)-(3-methylphenyl)methylideneamino]-6-morpholin-4-yl-2-(2-pyridin-2-ylethoxy)pyrimidin-4-amine]	only observed in the wildtype cells but not Pikfyve-null cells	increased
